Experimental findings from US8916524B2, “Composition for improving brain function and method for improving brain function” (Calpis Co., Ltd., priority 2010, dated 2014) are described below.

In this experiment the test system is scopolamine-induced amnesia. Nature of the experiment: Y-shaped maze test of spontaneous alternation behavior, prophylactic activity against scopolamine-induced amnesia. In kind it is in vivo, mice (ddY strain). As to conditions: male ddY mice; 5000 nmol/kg weight once orally 60 minutes before Y-shaped maze test; scopolamine 1 mg/kg weight subcutaneously 30 minutes before test. The method, then:
Male mice (n=15) of the ddY strain (approximately 7-week old) were used, and they took food and water ad lib. Test substances used were 500 nmol/kg weight (230 ug/kg weight) and 5000 nmol/kg weight (2300 ug/kg weight) of Val-Pro-Pro-Phe (SEQ ID NO: 2). The test substances were administered to the mice once orally 60 minutes before the execution of a Y-shaped maze test for evaluation of spontaneous alternation behavior. Further, 30 minutes before the execution of the Y-shaped maze test, 1 mg/kg weight of scopolamine was subcutaneously administered on the backs of the mice in order to induce brain dysfunction (dysmnesia and/or cognitive impairment) in the mice. In the Y-shaped maze test, a Y-shaped maze was used as an experimental device, in which the length of each arm was 40 cm, the height of the wall was 12 cm, the width of the floor was 3 cm, and the width of the upper part was 10 cm, and three arms were connected to each other at an angle of 120 degrees. […] The sequence of the arms each of the mice entered was recorded. The number of entries by each of the mice for each of the arms during the measurement time was counted to be the total number of entries. […] The percentage of spontaneous alternation behavior was calculated by dividing the number of spontaneous alternation behavior by a number obtained by subtracting 2 from the total number of entries, and multiplying a resultant number by 100. […] The measured values were expressed in the form of mean±standard error for each group. A significant difference between the control group and the scopolamine control group was calculated using Student's t-test. Further, a significant difference between the scopolamine control group and the VPPF-administered group was calculated using Dunnett's multiple comparison test after one-way analysis of variance.
Male mice (n=15) of the ddY strain (approximately 7-week old) were used, and they took food and water ad lib. […] The arms each of the mice entered were sequentially recorded. […]
Regarding “Asn-Ile-Pro-Pro-Leu (NIPPL; Synthetic functional peptide)”, the “prophylactic activity against amnesia (percentage of spontaneous alternation behavior)” value is recorded as “had a prophylactic activity against amnesia”. Turning to “Ile-Pro-Pro-Leu (IPPL; Synthetic functional peptide)”, the “prophylactic activity against amnesia (percentage of spontaneous alternation behavior)” value is “had a prophylactic activity against amnesia”. With “Val-Pro-Pro-Phe (VPPF; Synthetic functional peptide)” the entry was “had a prophylactic activity against amnesia”.
